Laboratory results from ChEMBL document CHEMBL1142411, “Antileishmanial compounds from Cordia fragrantissima collected in Burma (Myanmar)” (J Nat Prod, 2008).
In brackets after ≈: the same amount, converted by molar mass. Peptide text beside a SMILES is read from it. * marks the point of attachment. Cbz = O=C(OCc1ccccc1)*

Columns and labels:
[1] = tested on: Leishmania guyanensis; assay: Antileishmanial activity against Leishmania guyanensis promastigotes after 48 hrs by MTT method; assay type: functional, organism-based
[2] = tested on: Leishmania major; assay: Antileishmanial activity against Leishmania major promastigotes after 48 hrs by MTT method; assay type: functional, organism-based
[3] = tested on: Leishmania panamensis; assay: Antileishmanial activity against Leishmania panamensis promastigotes after 48 hrs by MTT method; assay type: functional, organism-based
[4] = Cytotoxicity against african green monkey COS7 cells by XTT method; assay type: cell-based; conditions: Chlorocebus aethiops, COS-7
[5] = tested on: Huh-7; assay: Cytotoxicity against human HuH7 cells by XTT method; assay type: functional, cell-based

| SMILES | IC50 [1] [µg/mL] | IC50 [2] [µg/mL] | IC50 [3] [µg/mL] | IC50 [4] | IC50 [5] |
| --- | --- | --- | --- | --- | --- |
| C=C[C@@]1(C)CC2=C(C[C@H]1C(=C)C)C(=O)C=CC2=O [Cordiachrome C] | 6 (≈ 24.8 µM) | 21.1 (≈ 87.1 µM) | 5.5 (≈ 22.7 µM) |  |  |
| C=C1CCC[C@@]2(C)CC3=C(C[C@@H]12)C(=O)C=CC3=O [CORDIACHROME B] |  | 2.5 (≈ 10.3 µM) |  | 14.6 µg/mL | 71.5 µg/mL |
| CC1=C2C(=O)c3c(O)ccc(O)c3CC2(C)CCC1=O (racemic) | 7 (≈ 25.7 µM) | 81.4 (≈ 299 µM) | 13 (≈ 47.7 µM) | 51.7 µg/mL | 71.8 µg/mL |
| CC1=CCC[C@@]2(C)CC3=C(C[C@@H]12)C(=O)C=CC3=O [CORDIACHROME A] |  | 4.1 (≈ 16.9 µM) |  | 22.5 µg/mL | 61.1 µg/mL |
| C/C(C=O)=C\CC/C(C)=C/Cc1cc(O)ccc1O [ALLIODORIN] | 2 (≈ 7.68 µM) | 7 (≈ 26.9 µM) | 1.8 (≈ 6.91 µM) | 31.9 µg/mL | 44.8 µg/mL |
| CC1=C2C(=O)c3c(OC(=O)c4ccc(Br)cc4)ccc(OC(=O)c4ccc(Br)cc4)c3CC2(C)CCC1=O (racemic) |  | 23.5 (≈ 36.8 µM) |  | > 100 µg/mL | > 100 µg/mL |
| CC(=O)Oc1ccc(OC(C)=O)c2c1CC1(C)CCC(=O)C(C)=C1C2=O (racemic) |  | 80.4 (≈ 226 µM) |  | 50.7 µg/mL | 65.5 µg/mL |
| CC1(O)CCCC2(C)Cc3c(O)ccc(O)c3CC12 (racemic) | 3 (≈ 11.4 µM) | 2.7 (≈ 10.3 µM) | 1.8 (≈ 6.86 µM) | > 100 µg/mL | 41.7 µg/mL |
| CC(C)C[C@@H](C=O)NC(=O)[C@H](CC(C)C)NC(=O)[C@H](CC(C)C)NC(=O)OCc1ccccc1 [MG-132] (Cbz-Leu-Leu-Leu-aldehyde) |  |  |  | < 10 µM | < 10 µM |
| C/C(C=O)=C\CCC(C)(O)/C=C\c1cc(O)ccc1O (racemic) |  | > 25 |  | > 100 µg/mL | > 100 µg/mL |
| C=C[C@@]1(C)Cc2c(O)ccc(O)c2C[C@H]1C(=C)C |  | 4.5 (≈ 18.4 µM) |  |  |  |
| C[C@@H]1[C@H](O)[C@@H](C)/C=C/C=C/C=C/C=C/C=C/C=C/C=C/[C@H](O[C@@H]2O[C@H](C)[C@@H](O)[C@H](N)[C@@H]2O)C[C@@H]2O[C@](O)(C[C@@H](O)C[C@@H](O)[C@H](O)CC[C@@H](O)C[C@@H](O)CC(=O)O[C@H]1C)C[C@H](O)[C@H]2C(=O)O [AMPHOTERICIN B] | < 0.1 | < 0.1 | < 0.1 |  |  |
| C=C[C@@]1(C)Cc2c(OC(C)=O)ccc(OC(C)=O)c2C[C@H]1C(=C)C [ACETYLCORDIAQUINOL C] |  | 1.4 (≈ 4.26 µM) |  | 20.1 µg/mL | 60.9 µg/mL |
